{"source": "patent US20230406883A1", "about": "“COMPOUNDS AND THEIR USE IN TREATMENT OF TACHYKININ RECEPTOR MEDIATED DISORDERS” (Embark Biotech ApS, priority 2020, published 2023)", "key": {"hNK2R [1]": {"biological_target": "T1, hNK2R (Homo sapiens, UniProt P21452)", "T1 construct": "host or cells: COS-7", "T1 sequence (P21452 1-398)": "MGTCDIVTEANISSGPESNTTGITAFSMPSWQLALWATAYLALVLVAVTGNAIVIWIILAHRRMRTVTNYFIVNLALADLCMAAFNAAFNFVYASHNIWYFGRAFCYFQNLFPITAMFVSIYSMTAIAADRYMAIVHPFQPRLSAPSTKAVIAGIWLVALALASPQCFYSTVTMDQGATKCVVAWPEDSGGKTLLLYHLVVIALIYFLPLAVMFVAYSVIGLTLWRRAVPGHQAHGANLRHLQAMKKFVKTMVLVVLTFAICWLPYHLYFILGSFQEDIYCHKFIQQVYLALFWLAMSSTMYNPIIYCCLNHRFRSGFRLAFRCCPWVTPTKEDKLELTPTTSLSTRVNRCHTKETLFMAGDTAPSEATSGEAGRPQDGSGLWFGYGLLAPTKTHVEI", "assay": "Indirect human serum albumin binding by IP3 assay, 0.2% ovalbumin vs 1% HSA", "assay_type": "cell-based", "experimental": "Agonist-induced G-protein coupled receptor (GPCR) activation was measured by an Inositol-1,4,5-Trisphosphate [^3H] Radioreceptor Assay (IPs Assay). Assays were carried out using COS-7 cells transiently transfected by calcium phosphate transfection with a vector pcDNA3.1(+) encoding one of the indicated receptors (Genscript). Briefly, DNA mixed with CaCl2 (2 M) and TE-buffer (10 mM Tris-HCl, 1 mM EDTA, pH 7.5) was dropwise added to 2×HBS (50 mM HEPES, 280 mM NaCl, 1.5 mM NaH2PO4, pH 7.2) and incubated for 45 min at room temperature (22±2° C.). The mixture and a final concentration of 100 μM Chloroquine were added to the cells and left to incubate for 5 hours at 37° C. under standard cell culture conditions (10% CO2) before changing medium to fresh medium containing 5 μl/mL Myo-[2-^3H(N)]-inositol (labeling medium).\nThe indirect HSA binding IP3 assay takes advantage of the tachykinin receptors' ability to induce production of the inositol trisphosphate (IP3) second messenger upon agonist (ligand) binding on receptor expressing cells following an initial ^3H-inositol labeling period. The assay relies on the assumption that high peptide HSA binding will result in low receptor-mediated production of the second messenger IP3. Thus, the assay is an indirect assessment HSA binding.\nAssay solutions used: Wash buffer (HBSS), Assay buffer 0.2% OvAlb (HBSS+10 mM LiCl and 0,2% w/v ovalbumin) or Assay buffer 1% HSA (HBSS+10 mM LiCl and 1% w/v HSA), Lysis buffer (10 mM formic acid), and SPA YSI beads (12.5 mg/ml in H2O). The assay was performed the day after transfection. Briefly, labelling medium was aspirated, and plates were washed ×1 in wash buffer before adding 100 μl assay buffer 0.2% OvAlb or assay buffer 1% HSA, pre-incubated for 30 min followed by 120 min incubation with agonist, both at 37° C. After incubation, plates were immediately placed on ice and the incubation medium was aspirated and 40 μl of 10 mM formic acid per well was added. Plates were incubated for at least 30 min on ice. 60 μl (1 mg/well) SPA YSI beads/well was pipetted into a solid white 96 wells plate and 35 μl of the lysis solution was transferred to the plate before covering plates with seal cover and shaking for 10 min. (max speed). Centrifuge plates and leave for 8 hours at room temperature before counting the plates in a MicroBeta plate counter (Perkin Elmer)."}, "hNK3R": {"biological_target": "T2, hNK3R (Homo sapiens, UniProt P29371)", "T2 construct": "host or cells: COS-7", "T2 sequence (P29371 1-465)": "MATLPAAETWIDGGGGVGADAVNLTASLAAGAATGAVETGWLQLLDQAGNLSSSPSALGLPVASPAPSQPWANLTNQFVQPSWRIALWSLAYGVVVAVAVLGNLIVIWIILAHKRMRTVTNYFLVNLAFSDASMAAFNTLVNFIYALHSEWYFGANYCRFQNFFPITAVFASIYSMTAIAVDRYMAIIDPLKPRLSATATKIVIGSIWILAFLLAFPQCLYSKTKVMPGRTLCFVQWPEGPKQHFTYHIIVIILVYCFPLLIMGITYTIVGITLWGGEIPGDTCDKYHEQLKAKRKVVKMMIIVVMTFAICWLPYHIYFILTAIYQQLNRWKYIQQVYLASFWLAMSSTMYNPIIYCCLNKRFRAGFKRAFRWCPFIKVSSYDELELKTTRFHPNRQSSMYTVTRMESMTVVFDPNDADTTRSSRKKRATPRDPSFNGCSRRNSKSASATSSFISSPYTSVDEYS", "assay": "IP3 assay (inositol trisphosphate, 3H-myoinositol) in transiently transfected COS-7 cells", "assay_type": "cell-based", "conditions": "COS-7 cells", "how_it_was_run": "(§1)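 COS-7 cells were transiently transfected with receptor plasmid and labelled with ³H-myo-inositol. Cells were lysed in formic acid, and ³H-inositol phosphates were captured on SPA YSI beads and counted.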"}, "hNK2R [2]": {"biological_target": "T1, hNK2R", "assay": "IP3 assay (inositol trisphosphate, 3H-myoinositol) in transiently transfected COS-7 cells", "assay_type": "cell-based", "conditions": "COS-7 cells", "how_it_was_run": "as §1"}, "hNK1R": {"biological_target": "T3, hNK1R (Homo sapiens, UniProt P25103)", "T3 construct": "host or cells: COS-7", "T3 sequence (P25103 whole entry)": "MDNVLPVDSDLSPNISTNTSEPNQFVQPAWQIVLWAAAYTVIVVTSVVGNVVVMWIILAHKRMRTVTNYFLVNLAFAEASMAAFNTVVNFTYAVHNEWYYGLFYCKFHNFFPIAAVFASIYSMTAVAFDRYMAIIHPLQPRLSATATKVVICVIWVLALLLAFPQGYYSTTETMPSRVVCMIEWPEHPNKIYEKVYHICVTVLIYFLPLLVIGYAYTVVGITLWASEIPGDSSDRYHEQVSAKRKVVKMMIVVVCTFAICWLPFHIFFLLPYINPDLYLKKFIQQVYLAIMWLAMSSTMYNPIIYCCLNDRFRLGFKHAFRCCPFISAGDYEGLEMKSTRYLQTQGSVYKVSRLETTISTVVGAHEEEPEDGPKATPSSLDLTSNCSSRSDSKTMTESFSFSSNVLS", "assay": "IP3 assay (inositol trisphosphate, 3H-myoinositol) in transiently transfected COS-7 cells", "assay_type": "cell-based", "conditions": "COS-7 cells", "how_it_was_run": "as §1"}, "in vivo": {"assay": "in vivo", "parameters": "species or system mice", "conditions": "mouse", "experimental": "Pharmacokinetics: To evaluate the in vivo half-life of individual peptide analogues we used wild type lean mice at around 10 weeks of age injected once with a peptide analogue. For each sample time point 3-4 mice were used and blood was drawn from the submandibular vein at indicated time points following injection. Prior to injection mice were given ad libitum access to standard chow diet. Mice were subcutaneously injected with 0.5 mg/kg peptide analogue in a volume of 2 ml/kg. The amount of peptide analogue and metabolite(s) present in blood samples were measured by TF-LC-MS and MetID-LC-MS, respectively. Sample preparation: One volume of plasma is precipitated with three volumes of ethanol (with internal standard). The mixture is centrifuged at 13000 g for 20 min. One volume of supernatant is diluted with two volumes of Milli-Q water (1% formic acid). Calibration curve: peptide analogue was spiked into blank mouse plasma. Range: 0.5 to 2000 nM (linear 1/x2)."}, "[3]": {"assay": "Energy expenditure screening by indirect calorimetry in diet-induced obese mice", "assay_type": "in vivo", "conditions": "DIO mice, 0.5 mg/kg s.c., increase over vehicle", "experimental": "Indirect calorimetry was used to evaluate the ability of individual peptide analogues to dose-dependently increase energy expenditure (EE) we used metabolic cages and indirect calorimetry measured by the Promethion system. To this end, oxygen consumption was used as a surrogate measure for EE. Substrate preference (fat or carbohydrate) was evaluated using the respiratory exchange ratio (RER). In parallel, behavioral information such as walking distance and water and food intake were recorded.\nPrior to experimentation, DIO mice were transferred to habituation cages for at least 10 days (5 days outside and at least 5 days in the Sable Systems gas analyzer module) to acclimatize. For all in vivo compound tests for EE evaluation, mice received subcutaneous injections between 2 and 4 pm.\nEnergy expenditure screening: After habituation, mice were subcutaneously injected with 0.5 mg/kg peptide analogue in a volume of 2 ml/kg. Mice were injected q.a.d. (quaque altera die) and received a total of two injections. EE was evaluated and increase over vehicle was calculated as percent of mean oxygen consumption over a 30-hour period after injection. Prior to injection peptide analogues were dissolved to 0.25 mg/ml in in vivo buffer."}, "[4]": {"conditions": "figure legends: percent of 10^-6 M NKA"}}, "note": "Numbered stars: 1 amine (or outer) side, 2 acyl side, 3 side chain; on linkers, the order of the positions; unused ones are H or OH. Square brackets hold non-standard residues; d marks the D form. Side chains are listed from the residue outwards. Peptide text beside a SMILES is read from it. * marks the point of attachment. X1 = O=C(O)CCCCCCCCCCCCCCCCC(=O)N[C@@H](CCC(=O)NCCCNCCCCNCCCN*)C(=O)O; C18 diacid = O=C(O)CCCCCCCCCCCCCCCCC(=O)*; γGlu = O=C(O)[C@H](CCC(=O)[*:2])N[*:1]; εLys = N[C@@H](CCCCN[*:1])C(=O)[*:2]; Stearoyl = CCCCCCCCCCCCCCCCCC(=O)*; NMeL = CN[C@@H](CC(C)C)C(=O)O; Suc = O=C(CCC(=O)[*:2])[*:1]; Nle = CCCC[C@H](N)C(=O)O; AEEA = NCCOCCOCC(=O)O"}
{"smiles": "CCCCCCCCCCCCCCCCCC(=O)N[C@@H](CCC(=O)NCCOCCOCC(=O)NCCOCCOCC(=O)N[C@@H](CC(=O)O)C(=O)N[C@@H](CCCCN)C(=O)N[C@@H](Cc1ccc(O)cc1)C(=O)N[C@H](C(=O)NCC(=O)N(C)[C@@H](CC(C)C)C(=O)N[C@@H](CCCC)C(N)=O)C(C)C)C(=O)O", "note": "[compound 390, *Asp;Lys;Tyr;Val;Gly;NmLeu;Nle;NH2] ({Stearoyl-γGlu-AEEA-AEEA}-DKYVG[NMeL][Nle]-NH2)", "values": [{"measurement": "hNK2R, Albumin binding Efficacy (%)-ovalbumin", "setting": "hNK2R [1]; 0.2% ovalbumin", "value": 100, "unit": "%"}, {"measurement": "EC50", "setting": "hNK2R [1]; 0.2% ovalbumin, read-out: hNK2R, Albumin binding EC50 (nM)-ovalbumin", "value": 1, "unit": "nM"}, {"measurement": "hNK2R, Albumin binding Efficacy (%)-1% human serum albumin", "setting": "hNK2R [1]; 1% HSA", "value": 90, "unit": "%"}, {"measurement": "EC50", "setting": "hNK2R [1]; 1% HSA, read-out: hNK2R, Albumin binding EC50 (nM)-1% human serum albumin", "value": 0.7, "unit": "nM"}, {"measurement": "EC50", "setting": "hNK3R; 0.2% ovalbumin buffer, read-out: hNK3, IP3 EC50", "value": 14, "unit": "nM"}, {"measurement": "hNK3, IP3 Efficacy", "setting": "hNK3R; [4]", "value": 100, "unit": "%"}, {"measurement": "EC50", "setting": "hNK2R [2]; 0.2% ovalbumin buffer", "value": 1, "unit": "nM"}, {"measurement": "hNK2R, IP3 Efficacy", "setting": "hNK2R [2]; [4]", "value": 100, "unit": "%"}, {"measurement": "EC50", "setting": "hNK1R; 0.2% ovalbumin buffer", "value": 3.9, "unit": "nM"}, {"measurement": "hNK1R, IP3 Efficacy", "setting": "hNK1R; [4]", "value": 88, "unit": "%"}, {"measurement": "half-life", "setting": "in vivo; sc, 0.5 mg/kg, Half-life", "value": 1.7, "unit": "h"}]}
{"smiles": "CCCC[C@H](NC(=O)[C@H](CC(C)C)N(C)C(=O)CNC(=O)[C@@H](NC(=O)[C@H](Cc1ccc(O)cc1)NC(=O)[C@H](CCCCN)NC(=O)[C@H](CC(=O)O)NC(=O)[C@@H](N)CCCCNC(=O)[C@@H](N)CCCCNC(=O)CC[C@H](NC(=O)CCCCCCCCCCCCCCCCC(=O)O)C(=O)O)C(C)C)C(N)=O", "note": "[compound 321, *Asp;Lys;Tyr;Val;Gly;NmLeu;Nle;NH2] (H-K([εLys-γGlu-C18 diacid])DKYVG[NMeL][Nle]-NH2)", "values": [{"measurement": "Energy expenditure (percent of vehicle; based on 30 h average vO2)", "setting": "[3]", "value": "5% of vehicle"}, {"measurement": "Plasma exposure [2 h]", "setting": "in vivo", "value": 2266, "unit": "nM"}, {"measurement": "Plasma exposure [26 h]", "setting": "in vivo", "value": 763, "unit": "nM"}]}
{"smiles": "CCCC[C@H](NC(=O)[C@H](CC(C)C)N(C)C(=O)CNC(=O)[C@@H](NC(=O)[C@H](Cc1ccc(O)cc1)NC(=O)[C@H](CCCCN)NC(=O)[C@H](CC(=O)O)NC(=O)CCC(=O)NCCCNCCCCNCCCNC(=O)CC[C@H](NC(=O)CCCCCCCCCCCCCCCCC(=O)O)C(=O)O)C(C)C)C(N)=O", "note": "[compound 318, *Asp;Lys;Tyr;Val;Gly;NmLeu;Nle;NH2] ({X1-Suc}-DKYVG[NMeL][Nle]-NH2)", "values": [{"measurement": "Energy expenditure (percent of vehicle; based on 30 h average vO2)", "setting": "[3]", "value": "0% of vehicle"}, {"measurement": "Plasma exposure [26 h]", "setting": "in vivo", "value": "BLLQ"}, {"measurement": "level at time molar at 2 h", "setting": "in vivo; sc, 0.5 mg/kg", "value": 0.237, "unit": "µM"}]}
